Biological target: uricase from Micrococcus luteus NRRL B-8166
Assay: Spectrophotometric uricase assay (disappearance of uric acid at 290 nm)
Type: biochemical
Settings: assay in 50 mM KPi buffer pH 8.6, 30° C; read-out: inhibition constant for oxonate
Description: Uricase was assayed spectrophotometrically by following the disappearance of uric acid at 290 nm using a modification of the procedure described by Mahler et. al, J. Biol. Chem., p. 625, 216 (1955). Assay tubes contained 2.7 ml 50 mM KPi buffer pH 8.6, 0.1 mM sodium EDTA, 0.05 ml 6 mM urate, plus enzyme and water to give a final volume of 3.0 ml. Changes or additions to the assay mixtures were made when necessary. Tubes were incubated for 5 minutes at 30° C; the reaction was started by adding enzyme. Molar extinction coefficient for uric acid at 290 nm is 12,300. Activity was expressed in units of uricase activity, where a unit is that amount of enzyme which catalyzes the oxidation of one μmole of uric acid per minute at 30° C and pH 8.6.

O=C(O)c1nc(=O)[nH]c(=O)[nH]1 [oxonate]
Ki: 4.5 µM
